In EP2135864A1, “5-(4-methanesulfonyl-phenyl)-thiazole derivatives for the treatment of acute and chronic inflammatory diseases” (FAES FARMA, S.A., priority 2008, dated 2009):

What was measured:
Assay type in all cases: cell-based, human
IL-8 = IL-8 production by PBMC from healthy volunteers, CBA; conditions: 24 hours, mean ± standard error, n=13
Experimental: (§1) CBA protocol was followed according to the manufacturer's instructions. The election of microparticles was performed following the summary of Figure 1.
(§2) The acquisition on samples was performed with the BD FACS Array Bioanalyser System (FACSArray, Becton Dickinson, San José, CA, USA) and the analysis of the results was completed with the software FCAP Array (Becton Dickinson) in a PC computer.
(§3) Briefly, the experimental protocol consisted of a plate pre-washing out with Wash Buffer. After decantation, the mixture of capture microparticles was re-suspended in the vortex. Standards and samples were added in the adequate dilution. After permanent stirring incubation during 1 h, the PE detection reagent was added and incubated again during 2h at room temperature. After a washing-out, the acquisition was performed in the flow cytometer. Table 3. -Kit CBA Human Soluble Protein Multiplex Flex Set System.
The effect of compound 12 on the IL-8 production by the PBMC from healthy volunteers was further investigated, both in the presence and absence of LPS stimuli and monoclonal antibodies anti-CD3 and anti-CD28. PBMC (5 x 10^4 cells/well) from 13 healthy volunteers were cultured in duplicate in 200 µl of complete medium supplemented with the highest solvent concentration (10^-6 M), and 10^-6 M, 10^-7 M and 10^-8 M of compound 12, in the presence and absence of either LPS (10 µg/ml) or anti-CD3 (12.5 ng/ml) + anti-CD28 (1/3x10^5), during 24 hours. Culture supernatants were frozen at -20°C and IL-8 concentration was quantified by BD FACS Array Bioanalyser by using CBA Flex Set, specific to determine the IL-8 concentration, following the manufacturer instructions.

TNF-alpha [1] = assay: TNF-alpha production by PBMC from healthy volunteers, Cytometric Bead Array (CBA); conditions: 24 hours, mean ± standard error, n=13
Experimental: as §1, §2, §3
PBMC (5 x 10^4 cells/well) from 13 healthy volunteers were cultured in duplicate in 200 µl of complete medium supplemented with the highest solvent concentration (10^-6 M), […] the absence of LPS (10µg/ml) during 24 hours. Supernatant of cultures were frozen at -20°C and quantification was carried out by BD FACS Array Bioanayliser (BD Biosciences Cat No. 340128, San Diego CA 92121) by using specific reagents for the simultaneous assay of the indicated cytokines concentration (CBA Flex Multiplex Set (BD™ Cytometric Bead Array, CBA: IL-8, IL-10, TNF-alpha and IFN-gamma Becton Dickinson Biosciences Pharmingen, San Diego CA 92121).

TNF-alpha [2] = assay: TNF-alpha production by PBMC of healthy volunteers, ELISA of culture supernatant; conditions: 24 hours, median ± standard error, n=10
Experimental: In order to quantify the serum cytokines concentration, the extracted blood was stored in tubes both with and without anti-coagulant (collected by antecubital venopunction and arterial catheter, respectively). Blood was allowed to coagulate at room temperature in the laboratory, further separating the serum by centrifugation (600xg during 20 minutes). Supernatant were collected, filtered, divided in aliquotes and stored at -70°C. Concentration assays for different cytokines were performed by using the commercial kits described in Table 2. Table 2.- Commercial ELISA kits used in this study
Supernatants were unfrozen up to the room temperature and faced against the respective anti-cytokine by fixing them in the plate bottom and incubating them during a variable time. Subsequently, wash-outs were carried out and the substances recommended by the corresponding company were added in order to allow a colorimetric reaction, in a proportional manner to the amount of cytokine present in the supernatant. The results were assessed with the enzymo-immunoanalysis reader Multititer Plus (Tiertek Multiscan Plus, Flow Laboratories).
The analysis of the standard curves and subsequent interpolation was performed with the software Delta Soft II version 4.1 (Biometallics, Inc.) in an Apple Macintosh computer. Cytokine concentrations were converted to molar in order to calculate the molecular ratios of each case and the number of soluble molecules.
Effects of compound 12 on TNF-alpha production by PBMC of healthy volunteers in the presence or in the absence of LPS were first investigated. PBMC (5 x 10^4 cells/well, 200 µl) from 10 healthy volunteers were cultured in parallel in duplicate in tissue culture plates, 96 well, flat-bottom with low evaporation lid (353072 Falcon, Becton Dickinson labware, Franklin Lakes, USA, 07417-1886 NJ) in complete medium (RPMI-1640 with glutamine Cat BE-12-70F, Cambrex Biosciences, B4880 Verviers, Belgium), supplemented with phoetal bovine serum (origin USA, Gibco ref. 26140-079) and a solvent concentration of 10^-6 M alone or supplemented with 10^-6 M or 10^-7 M of compound 12, in the presence and in the absence of LPS (10microg/ml; E. coli LPS 0111:B4 strain InvivoGene, San Diego CA92121 USA) during 24 hours. Supernatant of cultures were frozen at -20°C and the concentration of TNF-alpha was quantified with ELISA species-specific (enzyme-linked immunosorbent assay for quantitative detection of tumour necrosis factor- alpha: human TNF-alpha ELISA BM S223/4TEUCE, Bender Med System Inc, Burlinghane CA 94010).

Question: For Cc1nc(OC2CCCC2)c(-c2ccc(S(C)(=O)=O)cc2)s1 [compound 12, 4-cyclopentyloxy-5-(4-methylsulfonyl-phenyl)-2-methylthiazole], which “IL-8 production by PMBC from healthy volunteers” value (from here on “IL-8 production by PMBC”) (IL-8; LPS (10µg/ml), 10^-6 M, vehicle 173877.36±8474.49, p 0.807) is on record?
Answer: 168467.15±9656.96 (0.807) pg/mL

Question: And the “IL-8 production by PMBC” value (IL-8; LPS (10µg/ml), 10^-7 M, vehicle 173877.36±8474.49, p 0.249)?
Answer: 162075.59±10258.41 (0.249) pg/mL

Question: What about the “IL-8 production by PMBC” value (IL-8; LPS (10µg/ml), 10^-8 M, vehicle 173877.36±8474.49, p 0.861) of the same compound?
Answer: 169609.11±9060.90 (0.861) pg/mL

Question: And the “IL-8 production by PMBC” value (IL-8; anti-CD3 (12.5 ng/ml) + anti-CD28 (1/3x10^5), 10^-6 M, vehicle 107008.56±8351.21, p 0.311)?
Answer: 99779.72±20000 (0.311) pg/mL

Question: And the “IL-8 production by PMBC” value (IL-8; anti-CD3 (12.5 ng/ml) + anti-CD28 (1/3x10^5), 10^-7 M, vehicle 107008.56±8351.21, p 0.055)?
Answer: 97968.61±10220.21 (0.055) pg/mL

Question: And the “IL-8 production by PMBC” value (IL-8; anti-CD3 (12.5 ng/ml) + anti-CD28 (1/3x10^5), 10^-8 M, vehicle 107008.56±8351.21, p 0.028)?
Answer: 92989.29±8463.47 (0.028) pg/mL

Question: And the “IL-8 production by PMBC” value (IL-8; medium, 10^-6 M, vehicle 72814.17±10647.16, p 0.016)?
Answer: 45634.31±6311.13 (0.016) pg/mL

Question: And the “IL-8 production by PMBC” value (IL-8; medium, 10^-7 M, vehicle 72814.17±10647.16, p 0.006)?
Answer: 53732.66±7952.75 (0.006) pg/mL

Question: What about the “IL-8 production by PMBC” value (IL-8; medium, 10^-8 M, vehicle 72814.17±10647.16, p 0.087) of the same compound?
Answer: 57773.60±6667.57 (0.087) pg/mL

Question: And the “TNF-alpha production in PMBC from healthy volunteers” value (from here on “TNF-alpha production in PMBC”) (TNF-alpha [1]; LPS (10µg/ml), 10^-6 M, vehicle 923.93±160.00, p 0.002)?
Answer: 602.12±100.00 (0.002) pg/mL

Question: And the “TNF-alpha production in PMBC” value (TNF-alpha [1]; LPS (10µg/ml), 10^-7 M, vehicle 923.93±160.00, p 0.046)?
Answer: 746.84±125.00 (0.046) pg/mL

Question: And the “TNF-alpha production in PMBC” value (TNF-alpha [1]; LPS (10µg/ml), 10^-8 M, vehicle 923.93±160.00, p 0.055)?
Answer: 738.81±100.00 (0.055) pg/mL

Question: And the “TNF-alpha production in PMBC” value (TNF-alpha [1]; anti-CD3 (12.5 ng/ml) + anti-CD28 (1/3x10^5), 10^-6 M, vehicle 435.81±60.00, p 0.116)?
Answer: 334.21±63.00 (0.116) pg/mL

Question: And the “TNF-alpha production in PMBC” value (TNF-alpha [1]; anti-CD3 (12.5 ng/ml) + anti-CD28 (1/3x10^5), 10^-7 M, vehicle 435.81±60.00, p 0.753)?
Answer: 404.11±97.00 (0.753) pg/mL

Question: And the “TNF-alpha production in PMBC” value (TNF-alpha [1]; anti-CD3 (12.5 ng/ml) + anti-CD28 (1/3x10^5), 10^-8 M, vehicle 435.81±60.00, p 0.422)?
Answer: 355.62±65.00 (0.422) pg/mL

Question: What about the “TNF-alpha production in PMBC” value (TNF-alpha [1]; medium, 10^-6 M, vehicle 163.84±30.00, p 0.422) of the same compound?
Answer: 148.31±50.00 (0.422) pg/mL

Question: What about the “TNF-alpha production in PMBC” value (TNF-alpha [1]; medium, 10^-7 M, vehicle 163.84±30.00, p 0.249) of the same compound?
Answer: 197.81±40.00 (0.249) pg/mL

Question: And the “TNF-alpha production in PMBC” value (TNF-alpha [1]; medium, 10^-8 M, vehicle 163.84±30.00, p 0.65)?
Answer: 168.49±16.00 (0.65) pg/mL

Question: And the “TNF-alpha production in PMBC” value (TNF-alpha [2]; LPS (10µg/ml), 10^-6 M, vehicle 3084.63±450.00, p 0.005)?
Answer: 1064.91±52.82 (0.005) pg/mL

Question: And the “TNF-alpha production in PMBC” value (TNF-alpha [2]; LPS (10µg/ml), 10^-7 M, vehicle 3084.63±450.00, p 0.028)?
Answer: 1938.00±487.74 (0.028) pg/mL

Question: And the “TNF-alpha production in PMBC” value (TNF-alpha [2]; medium (no stimulus), 10^-6 M, vehicle 1118.00±800.00, p 0.009)?
Answer: 551.60±324.17 (0.009) pg/mL

Question: And the “TNF-alpha production in PMBC” value (TNF-alpha [2]; medium (no stimulus), 10^-7 M, vehicle 1118.00±800.00, p 0.114)?
Answer: 1121.00±100.48 (0.114) pg/mL
